What was measured:
[1] = tested on: acyclovir (ACG) and BVdU resistant strains of HSV-1; assay: Antiherpes activity against acyclovir (ACG) and BVdU resistant strains of HSV-1, overall statement; assay type: cell-based
Method: (§1) IPdR and 5-bromo-2-pyrimidinone-2-deoxyribonucleoside (BrPdR) were tested for antiherpes activity according to procedures described by Cheng, Y.-C., et al. Antimicrob. Agents Chemother (1976) 10, 119.

[2] = tested on: ACG (Tr7), acyclovir resistant strain of HSV1; assay: Antiherpes activity, acyclovir resistant strain of HSV1 (Tr7) (Example 10); assay type: cell-based, HSV-1; conditions: Human alphaherpesvirus 1, read-out: plaque-forming units as % of control
Method: as §1

O=c1ncc(I)cn1[C@H]1C[C@H](O)[C@@H](CO)O1 [IPdR, 1-(2-Deoxy-β-D-Ribofuranosyl)-5-iodo-2-pyrimidinone]
activity against acyclovir (ACG) and BVdU resistant strains [1]: somewhat reduced but still significant activity
activity at 100 µM [2]: 2.6%
